The results in this text go back to BindingDB's records for doi:10.1016/s0968-0896(99)00127-3 (Sankyo, 1999).

SMILES strings stand for the structures.

This assay has as its target T1, Dimer of Gag-Pol polyprotein [489-587] (Human immunodeficiency virus 1, UniProt P12497).
T1 construct: 489-587
Description: Protease Inhibition Assay. The procedure: The inhibitory activities of the compounds toward HIV-1 PR were determined by sodium dodecyl sulfate-polyacrylamide gel electrophoresis (SDS-PAGE) assay. The IC50 values of active compounds were determined using the partially purified protease and the synthetic substrate Ac-Ser-Gln-AsnTyr-Pro-Ile-Val-NH2.
As for `Cc1ccc(C(=O)N[C@@H](Cc2ccccc2)[C@H](O)C(=O)N2C[C@@H](Cl)C[C@H]2C(=O)NC(C)(C)C)c(C)c1O`, the IC50 (commonly the concentration at which inhibition is half-maximal) was 8.2 nM.

Turning to `Cc1c(O)cc(F)cc1C(=O)N[C@@H](Cc1ccccc1)[C@H](O)C(=O)N1C[C@@H](Cl)C[C@H]1C(=O)NC(C)(C)C`, the IC50 was determined as 1.7 nM.

As for `Cc1ccc(C(=O)N[C@@H](Cc2cccc(C(F)(F)F)c2)[C@H](O)C(=O)N2C[C@@H](Cl)C[C@H]2C(=O)NC(C)(C)C)c(C)c1O`, the IC50 was 3.5 nM.

Turning to `Cc1cc(O)c(C)c(C(=O)N[C@@H](Cc2cccc(C(F)(F)F)c2)[C@H](O)C(=O)N2C[C@@H](Cl)C[C@H]2C(=O)NC(C)(C)C)c1`, the midpoint of inhibition, the IC50, lay at 1.9 nM.

Compound `Cc1ccc(O)c(C)c1C(=O)N[C@@H](Cc1ccc(C(F)(F)F)cc1)[C@H](O)C(=O)N1C[C@@H](Cl)C[C@H]1C(=O)NC(C)(C)C` gave a half-inhibitory concentration (IC50) of 3.9 nM.

For the compound `Cc1cccc(C[C@H](NC(=O)c2cc(C)cc(O)c2C)[C@H](O)C(=O)N2C[C@@H](Cl)C[C@H]2C(=O)NC(C)(C)C)c1`, the IC50 was determined as 1.3 nM.

`Cc1cccc(C[C@H](NC(=O)c2c(C)ccc(O)c2C)[C@H](O)C(=O)N2C[C@@H](Cl)C[C@H]2C(=O)NC(C)(C)C)c1`: the IC50 worked out at 3.4 nM.

`Cc1ccc(C[C@H](NC(=O)c2c(C)ccc(O)c2C)[C@H](O)C(=O)N2C[C@@H](Cl)C[C@H]2C(=O)NC(C)(C)C)cc1` displayed an IC50 of 3.6 nM.

`Cc1ccc(C(=O)N[C@@H](Cc2ccc3ccccc3c2)[C@H](O)C(=O)N2C[C@@H](Cl)C[C@H]2C(=O)NC(C)(C)C)c(C)c1O`: the IC50 came out at 3.2 nM.

For the compound `Cc1cc(O)c(C)c(C(=O)N[C@@H](Cc2ccc3sccc3c2)[C@H](O)C(=O)N2C[C@@H](Cl)C[C@H]2C(=O)NC(C)(C)C)c1` [(2S,4S)-1-[(2S,3S)-4-(1-benzothiophen-5-yl)-2-hydroxy-3-[(3-hydroxy-2,5-dimethylphenyl)formamido]butanoyl]-N-tert-butyl-4-chloropyrrolidine-2-carboxamide], it took 1.5 nM to reach half-maximal inhibition (IC50).

In turn, `Cc1c(O)cccc1C(=O)N[C@@H](Cc1ccc2sccc2c1)[C@H](O)C(=O)N1C[C@@H](Cl)C[C@H]1C(=O)NC(C)(C)C` [(2S,4S)-1-[(2S,3S)-4-(1-benzothiophen-5-yl)-2-hydroxy-3-[(3-hydroxy-2-methylphenyl)formamido]butanoyl]-N-tert-butyl-4-chloropyrrolidine-2-carboxamide] gave an IC50 of 1.4 nM.

The compound `Cc1ccccc1C[C@H](NC(=O)c1ccc(C)c(O)c1C)[C@H](O)C(=O)N1C[C@@H](Cl)C[C@H]1C(=O)NC(C)(C)C` [(2S,4S)-N-tert-butyl-4-chloro-1-[(2S,3S)-2-hydroxy-3-[(3-hydroxy-2,4-dimethylphenyl)formamido]-4-(2-methylphenyl)butanoyl]pyrrolidine-2-carboxamide] yielded an IC50 of 49.9 nM.

On to `Cc1ccc(C[C@H](NC(=O)c2ccc(C)c(O)c2C)[C@H](O)C(=O)N2C[C@@H](Cl)C[C@H]2C(=O)NC(C)(C)C)cc1` [(2S,4S)-N-tert-butyl-4-chloro-1-[(2S,3S)-2-hydroxy-3-[(3-hydroxy-2,4-dimethylphenyl)formamido]-4-(4-methylphenyl)butanoyl]pyrrolidine-2-carboxamide], for which the IC50 amounted to 8.6 nM.

Regarding `Cc1ccc(C(=O)N[C@@H](Cc2ccc(C(F)(F)F)cc2)[C@H](O)C(=O)N2C[C@@H](Cl)C[C@H]2C(=O)NC(C)(C)C)c(C)c1O` [(2S,4S)-N-tert-butyl-4-chloro-1-[(2S,3S)-2-hydroxy-3-[(3-hydroxy-2,4-dimethylphenyl)formamido]-4-[4-(trifluoromethyl)phenyl]butanoyl]pyrrolidine-2-carboxamide], the midpoint of inhibition, the IC50, lay at 6.3 nM.

The compound `Cc1cc(O)c(C)c(C(=O)N[C@@H](Cc2ccc3ccccc3c2)[C@H](O)C(=O)N2C[C@@H](Cl)C[C@H]2C(=O)NC(C)(C)C)c1` [(2S,4S)-N-tert-butyl-4-chloro-1-[(2S,3S)-2-hydroxy-3-[(3-hydroxy-2,5-dimethylphenyl)formamido]-4-(naphthalen-2-yl)butanoyl]pyrrolidine-2-carboxamide] gave an IC50 of 0.8 nM.

In the case of `Cc1cc(O)c(C)c(C(=O)N[C@@H](Cc2ccccc2)[C@H](O)C(=O)N2C[C@@H](Cl)C[C@H]2C(=O)NC(C)(C)C)c1` [(2S,4S)-N-tert-butyl-4-chloro-1-[(2S,3S)-2-hydroxy-3-[(3-hydroxy-2,5-dimethylphenyl)formamido]-4-phenylbutanoyl]pyrrolidine-2-carboxamide], the midpoint of inhibition, the IC50, lay at 1.3 nM.

Compound `Cc1ccccc1C[C@H](NC(=O)c1c(C)ccc(O)c1C)[C@H](O)C(=O)N1C[C@@H](Cl)C[C@H]1C(=O)NC(C)(C)C` [(2S,4S)-N-tert-butyl-4-chloro-1-[(2S,3S)-2-hydroxy-3-[(3-hydroxy-2,6-dimethylphenyl)formamido]-4-(2-methylphenyl)butanoyl]pyrrolidine-2-carboxamide] came in with an IC50 of 34.3 nM.

The compound `Cc1ccc(O)c(C)c1C(=O)N[C@@H](Cc1ccc2ccccc2c1)[C@H](O)C(=O)N1C[C@@H](Cl)C[C@H]1C(=O)NC(C)(C)C` [(2S,4S)-N-tert-butyl-4-chloro-1-[(2S,3S)-2-hydroxy-3-[(3-hydroxy-2,6-dimethylphenyl)formamido]-4-(naphthalen-2-yl)butanoyl]pyrrolidine-2-carboxamide] came in with an IC50 of 2.8 nM.

The compound `Cc1ccc(O)c(C)c1C(=O)N[C@@H](Cc1cccc(C(F)(F)F)c1)[C@H](O)C(=O)N1C[C@@H](Cl)C[C@H]1C(=O)NC(C)(C)C` [(2S,4S)-N-tert-butyl-4-chloro-1-[(2S,3S)-2-hydroxy-3-[(3-hydroxy-2,6-dimethylphenyl)formamido]-4-[3-(trifluoromethyl)phenyl]butanoyl]pyrrolidine-2-carboxamide] registered an IC50 of 4.6 nM.

The compound `Cc1ccccc1C[C@H](NC(=O)c1cccc(O)c1C)[C@H](O)C(=O)N1C[C@@H](Cl)C[C@H]1C(=O)NC(C)(C)C` [(2S,4S)-N-tert-butyl-4-chloro-1-[(2S,3S)-2-hydroxy-3-[(3-hydroxy-2-methylphenyl)formamido]-4-(2-methylphenyl)butanoyl]pyrrolidine-2-carboxamide] registered an IC50 of 4.5 nM.

On to `Cc1c(O)cccc1C(=O)N[C@@H](Cc1ccc(O)cc1)[C@H](O)C(=O)N1C[C@@H](Cl)C[C@H]1C(=O)NC(C)(C)C` [(2S,4S)-N-tert-butyl-4-chloro-1-[(2S,3S)-2-hydroxy-3-[(3-hydroxy-2-methylphenyl)formamido]-4-(4-hydroxyphenyl)butanoyl]pyrrolidine-2-carboxamide], for which the IC50 was found to be 1.3 nM.

In the case of `Cc1c(O)cccc1C(=O)N[C@@H](Cc1ccc(C(F)(F)F)cc1)[C@H](O)C(=O)N1C[C@@H](Cl)C[C@H]1C(=O)NC(C)(C)C` [(2S,4S)-N-tert-butyl-4-chloro-1-[(2S,3S)-2-hydroxy-3-[(3-hydroxy-2-methylphenyl)formamido]-4-[4-(trifluoromethyl)phenyl]butanoyl]pyrrolidine-2-carboxamide], the IC50 was 0.6 nM.

For `Cc1c(O)cc(F)cc1C(=O)N[C@@H](Cc1ccc2ccccc2c1)[C@H](O)C(=O)N1C[C@@H](Cl)C[C@H]1C(=O)NC(C)(C)C` [(2S,4S)-N-tert-butyl-4-chloro-1-[(2S,3S)-3-[(5-fluoro-3-hydroxy-2-methylphenyl)formamido]-2-hydroxy-4-(naphthalen-2-yl)butanoyl]pyrrolidine-2-carboxamide], the half-inhibitory concentration (IC50) is 1.2 nM.

`Cc1c(O)cccc1C(=O)N[C@@H](Cc1ccc(F)cc1F)[C@H](O)C(=O)N1C[C@@H](Cl)C[C@H]1C(=O)NC(C)(C)C` [(2S,4S)-N-tert-butyl-4-chloro-1-[(2S,3S)-4-(2,4-difluorophenyl)-2-hydroxy-3-[(3-hydroxy-2-methylphenyl)formamido]butanoyl]pyrrolidine-2-carboxamide] returned an IC50 of 1.6 nM.

For `Cc1c(O)cccc1C(=O)N[C@@H](Cc1ccccc1F)[C@H](O)C(=O)N1C[C@@H](Cl)C[C@H]1C(=O)NC(C)(C)C` [(2S,4S)-N-tert-butyl-4-chloro-1-[(2S,3S)-4-(2-fluorophenyl)-2-hydroxy-3-[(3-hydroxy-2-methylphenyl)formamido]butanoyl]pyrrolidine-2-carboxamide], the IC50 is 0.7 nM.

In the case of `Cc1c(O)cccc1C(=O)N[C@@H](Cc1ccc(F)c(F)c1)[C@H](O)C(=O)N1C[C@@H](Cl)C[C@H]1C(=O)NC(C)(C)C` [(2S,4S)-N-tert-butyl-4-chloro-1-[(2S,3S)-4-(3,4-difluorophenyl)-2-hydroxy-3-[(3-hydroxy-2-methylphenyl)formamido]butanoyl]pyrrolidine-2-carboxamide], inhibition was half-maximal at 0.8 nM (IC50).

For the compound `Cc1ccc(C[C@H](NC(=O)c2cccc(O)c2C)[C@H](O)C(=O)N2C[C@@H](Cl)C[C@H]2C(=O)NC(C)(C)C)cc1C` [(2S,4S)-N-tert-butyl-4-chloro-1-[(2S,3S)-4-(3,4-dimethylphenyl)-2-hydroxy-3-[(3-hydroxy-2-methylphenyl)formamido]butanoyl]pyrrolidine-2-carboxamide], the midpoint of inhibition, the IC50, lay at 1.2 nM.

As for `Cc1c(O)cccc1C(=O)N[C@@H](Cc1cccc(F)c1)[C@H](O)C(=O)N1C[C@@H](Cl)C[C@H]1C(=O)NC(C)(C)C` [(2S,4S)-N-tert-butyl-4-chloro-1-[(2S,3S)-4-(3-fluorophenyl)-2-hydroxy-3-[(3-hydroxy-2-methylphenyl)formamido]butanoyl]pyrrolidine-2-carboxamide], inhibition was half-maximal at 0.6 nM (IC50).

In turn, `Cc1c(O)cccc1C(=O)N[C@@H](Cc1ccc(F)cc1)[C@H](O)C(=O)N1C[C@@H](Cl)C[C@H]1C(=O)NC(C)(C)C` [(2S,4S)-N-tert-butyl-4-chloro-1-[(2S,3S)-4-(4-fluorophenyl)-2-hydroxy-3-[(3-hydroxy-2-methylphenyl)formamido]butanoyl]pyrrolidine-2-carboxamide] showed an IC50 of 0.9 nM.

In turn, `Cc1cccc(C[C@H](NC(=O)c2ccc(C)c(O)c2C)[C@H](O)C(=O)N2C[C@@H](Cl)C[C@H]2C(=O)NC(C)(C)C)c1` [(3-Hydroxy-2,4-dimethylbenzoyl)-(2(S)-hydroxy-3(S)-amino-4-m-tolylbutanoyl)-4(S)-Cl-Pro-NH-t-Bu] had a concentration for half-maximal inhibition (IC50) of 2.5 nM.
